Several values for one entry are separate records, joined by “and”; a condition that tells them apart may be missing. Equal values may be shown once. Entries after “also recorded” stand apart in the source; their conditions may differ. Blank lines part the entries; values can stand above or below the compound they belong to.
Legend:
Format in all cases: cell-based
[1] = target: T1, Px1 hemi-channels (Rattus norvegicus, UniProt P60570); experiment: Px1 hemi-channel currents in single Xenopus oocytes (two-electrode voltage-clamp)
T1 construct: expressed in transfected cells; host or cells: Xenopus laevis oocytes injected with in vitro transcribed RNA (pBSxG vector) plus antisense to endogenous Cx38
T1 sequence (P60570 whole entry): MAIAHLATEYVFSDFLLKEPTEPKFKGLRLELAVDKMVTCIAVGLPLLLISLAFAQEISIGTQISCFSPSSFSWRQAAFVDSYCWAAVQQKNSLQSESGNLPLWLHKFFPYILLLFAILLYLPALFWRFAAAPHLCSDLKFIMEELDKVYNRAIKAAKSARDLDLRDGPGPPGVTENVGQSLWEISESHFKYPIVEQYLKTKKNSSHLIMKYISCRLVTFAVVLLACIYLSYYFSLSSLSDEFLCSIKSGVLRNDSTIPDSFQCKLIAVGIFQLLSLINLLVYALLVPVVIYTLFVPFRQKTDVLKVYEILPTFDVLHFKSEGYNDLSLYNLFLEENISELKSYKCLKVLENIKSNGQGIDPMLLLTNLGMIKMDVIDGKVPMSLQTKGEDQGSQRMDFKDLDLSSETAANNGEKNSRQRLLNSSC
Procedure: For physiological analysis, cells were injected with a total volume of 40 nl of either an antisense oligonucleotide (3 ng/cell) to suppress the endogenous Xenopus Cx38 (30), or a mixture of antisense plus the specified RNA (20-80 ng/cell). The ability of pannexins to form hemi-channels was assessed in single oocytes 2-4 days after RNA injection, using a two-electrode voltage-clamp.
Whole-cell membrane currents (Im) were measured from single oocytes co-injected with pannexin RNAs and an oligonucleotide antisense to Xenopus Cx38 (FIG. 3A). Cells were initially clamped at a membrane potential (Vm) of −40 mV and depolarizing steps lasting 2 sec were applied in 10 mV increments up to +60 mV (bottom traces).
(§1) Stage V-VI cells were individually selected under a dissecting microscope and cultured thereafter in control medium at 18° C. For physiological analysis, all cells were injected with a total volume of 40 nl of either an antisense oligonucleotide (3 ng/cell) to suppress the endogenous Xenopus Cx38 (30; 51), or a mixture of antisense (as above) plus the specified pannexin or connexin RNA. The following amounts of RNAs were injected: 40-80 ng/cell for Px1 and Px2 RNAs, either separately or co-injected at a 1:1 ratio; 4 ng/cell for Cx46; 10-20 ng/cell for Cx52.6. For analysis of Cx46 hemi-channels, the extracellular Ca^2+ concentration was raised to 2.9 mM to prevent the lysis of the injected oocytes that occurs in control medium, which contains 0.9 mM Ca^2+ (53). To characterize hemi-channel activity, current recordings were performed in single oocytes 24-96 hr after RNA injection, using a two-electrode voltage-clamp procedure.
(§2) The setup, hardware and software used for electrophysiological measurements and data analysis were as previously described (54; 49). Cells were clamped at −40 mV, and whole cell currents recorded in response to depolarizing voltage steps (from −20 to +60 mV in 20 mV increments) imposed for 2 sec. Current outputs were filtered at 200 Hz and sampled at 500 Hz.
All experiments were carried out at 18° C. Carbenoxolone (the succinyl ester of glycyrrhetinic acid), β-glycyrrhetinic acid and flufenamic (Sigma-Aldrich) were prepared freshly by dissolving them in either water (in the case of carbenoxolone) or dimethyl sulfoxide (DMSO), whose final concentration never exceeded 0.1%. […] Oocytes were placed on a Teflon tubing in a perfusion chamber and drugs were delivered using an electronically controlled gravity flow perfusion system (ALA Scientific Instruments, Westbury, N.Y.). […] Current-voltage (I-V) relationships were generated by plotting peak current values above holding currents (ΔIm) versus membrane potential. The time constants (τ) of voltage-dependent transitions of hemi-channel currents were calculated using data fitting functions in Origin 6.0 (Microcal Software, Northampton, Mass.). In all experiments, positive controls showing the effect of the tested drugs were routinely included.

[2] = target: T2, Px1/Px2 hemi-channels (Rattus norvegicus, UniProt P60570+P60571); experiment: Heteromeric Px1/Px2 hemi-channel currents in single Xenopus oocytes (two-electrode voltage-clamp)
T2 construct: expressed in transfected cells; host or cells: Xenopus laevis oocytes co-injected with Px1 and Px2 RNA (1:1) plus antisense to endogenous Cx38
T2 sequence (P60570 whole entry): as above
T2 sequence (P60571 11-674): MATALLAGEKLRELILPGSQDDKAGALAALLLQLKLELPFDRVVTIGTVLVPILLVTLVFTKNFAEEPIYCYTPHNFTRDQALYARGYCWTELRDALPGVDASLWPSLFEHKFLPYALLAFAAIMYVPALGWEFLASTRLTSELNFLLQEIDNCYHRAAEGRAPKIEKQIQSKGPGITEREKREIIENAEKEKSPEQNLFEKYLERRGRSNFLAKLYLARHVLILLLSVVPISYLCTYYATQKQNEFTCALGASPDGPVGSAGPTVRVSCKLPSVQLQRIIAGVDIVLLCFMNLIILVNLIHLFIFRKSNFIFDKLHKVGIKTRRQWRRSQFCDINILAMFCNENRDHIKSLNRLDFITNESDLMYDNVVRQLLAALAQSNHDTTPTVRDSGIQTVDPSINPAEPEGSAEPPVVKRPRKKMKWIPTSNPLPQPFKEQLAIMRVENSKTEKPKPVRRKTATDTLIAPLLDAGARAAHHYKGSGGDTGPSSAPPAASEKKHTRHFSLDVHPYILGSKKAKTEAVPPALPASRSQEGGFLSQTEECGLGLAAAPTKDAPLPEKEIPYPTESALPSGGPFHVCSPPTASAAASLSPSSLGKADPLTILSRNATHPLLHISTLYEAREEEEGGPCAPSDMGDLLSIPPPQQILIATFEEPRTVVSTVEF
Procedure: as §1, §2
All experiments were carried out at 18° C. Carbenoxolone (the succinyl ester of glycyrrhetinic acid), β-glycyrrhetinic acid and flufenamic (Sigma-Aldrich) were prepared freshly by dissolving them in either water (in the case of carbenoxolone) or dimethyl sulfoxide (DMSO), whose final concentration never exceeded 0.1%. […] Oocytes were placed on a Teflon tubing in a perfusion chamber and drugs were delivered using an electronically controlled gravity flow perfusion system (ALA Scientific Instruments, Westbury, N.Y.). Cells were incubated for 15-30 minutes in the presence of the different drugs and reversibility was recorded after extensive washings in control medium. Current-voltage (I-V) relationships were generated by plotting peak current values above holding currents (ΔIm) versus membrane potential. The time constants (τ) of voltage-dependent transitions of hemi-channel currents were calculated using data fitting functions in Origin 6.0 (Microcal Software, Northampton, Mass.). In all experiments, positive controls showing the effect of the tested drugs were routinely included.

[3] = target: T3, Cx46 hemi-channels (Rattus norvegicus, UniProt P29414); experiment: Cx46 hemi-channel currents in single Xenopus oocytes (two-electrode voltage-clamp)
T3 construct: expressed in transfected cells; host or cells: Xenopus laevis oocytes injected with Cx46 RNA (4 ng/cell) plus antisense to endogenous Cx38
Procedure: as §1, §2
All experiments were carried out at 18° C. Carbenoxolone (the succinyl ester of glycyrrhetinic acid), β-glycyrrhetinic acid and flufenamic (Sigma-Aldrich) were prepared freshly by dissolving them in either water (in the case of carbenoxolone) or dimethyl sulfoxide (DMSO), whose final concentration never exceeded 0.1%. […] Cells were incubated for 15-30 minutes in the presence of the different drugs and reversibility was recorded after extensive washings in control medium. […] The time constants (τ) of voltage-dependent transitions of hemi-channel currents were calculated using data fitting functions in Origin 6.0 (Microcal Software, Northampton, Mass.). […]

Structure (SMILES): CC1(C)[C@@H](O)CC[C@]2(C)[C@H]3C(=O)C=C4[C@H]5C[C@@](C)(C(=O)O)CC[C@]5(C)CC[C@@]4(C)[C@]3(C)CC[C@@H]12 [βGA, β-glycyrrhetinic acid]
effect on Px1 hemi-channel currents ([1]; 50 μM, 30 min incubation, reversible on washout): robust and reversible decrease; also recorded: strongly blocked

effect on time constant (τ) of Px1 channel closure ([1]; 3 μM CBX, +60 mV): gated much faster than in control medium | time constants (τ) of Px1 channel closure, faster than in control medium ([1]; 3 μM CBX, depolarized to +60 mV from −40 mV, first order exponential decay fit): approximately 10 times | decrease of Px1 hemi-channel currents ([1]; 10 μM CBX, 30 min incubation): 50-60% | effect on Px1 currents ([1]; 30 μM carbenoxolone, 10-30 min incubation): completely suppressed Px1 currents | peak amplitude of Px1 currents at +60 mV ([1]; 30 μM carbenoxolone, 10-30 min incubation, control medium 1189±170 nA, n=4): 255±47 nA | Hill coefficient ([1]; concentration dependence of blockade of Px1 hemi-channel currents): ~1 | IC50 ([1]; normalized peak currents at +60 mV, fit to Hill equation, 3-9 cells, read-out: IC50 of blockade of Px1 hemi-channel currents): 5 µM and ~5 µM | reversibility of inhibition of Px1 hemi-channels ([1]; up to highest dose tested (100 μM), washout and 30 min in control medium): always reversible | effect on Px1 hemi-channel currents ([1]; very low CBX concentrations (<1 μM)): ineffective | decrease of Px1/Px2 hemi-channel currents ([2]; 10 μM CBX, 30 min incubation): 50-60% | current amplitude at the +60 mV depolarization step ([2]; 10 μM CBX, control medium 612±50 nA, n=6 cells): 266±24 nA | current amplitude at the +60 mV depolarization step after reversibility period ([2]; after 10 μM CBX, washout and 30 min in control medium, n=6 cells): 541±70 nA
Structure (SMILES): CC1(C)[C@@H](OC(=O)CCC(=O)O)CC[C@]2(C)[C@H]3C(=O)C=C4[C@@H]5C[C@@](C)(C(=O)O)CC[C@]5(C)CC[C@@]4(C)[C@]3(C)CC[C@@H]12 [carbenoxolone]
effect on Px1 hemi-channel currents ([1]; 50 μM, 30 min incubation, reversible on washout, listed as CBX): robust and reversible decrease; also recorded: strongly blocked | effect on I-V relationship of Cx46-expressing oocytes ([3]; 10 μM CBX, 30 min incubation): virtually identical to that measured in control medium

inhibition of Px1 currents ([1]; 30 μM FFA, 30 min, at the more positive potentials): 10-15% | extent of Px1 channel blockade ([1]; highest FFA concentration used (300 μM), +60 mV): ≤ 33% | inhibitory effect on pannexins ([1]; summary statement): only a modest inhibitory effect | inhibition of Px1/Px2 current amplitudes at +60 mV ([2]; 30 μM FFA, n=12): about 15% | Px1/Px2 current amplitude at +60 mV ([2]; 30 μM FFA, 603±123 nA in MB, n=12): 504±101 nA | Px1/Px2 current amplitude at +60 mV ([2]; 300 μM FFA, 609±135 nA before, n=11): 448±104 nA | inhibition at 300 µM ([2]; highest FFA concentration (300 μM), n=11, read-out: inhibition of Px1/Px2 current amplitudes at +60 mV): 27%
Structure (SMILES): O=C(O)c1ccccc1Nc1cccc(C(F)(F)F)c1 [flufenamic acid]
effect on time constant (τ) of Px1 channel closure ([1]; 300 μM FFA, +60 mV, listed as FFA): did not affect the time constant of channel closure; also recorded: did not show any appreciable change | effect on Px1 hemi-channels ([1]; increasing FFA concentrations up to 300 μM, 30 min, listed as FFA): moderate inhibition of Px1 currents; also recorded: modest inhibition of Px1 hemi-channels only at the highest dose | effect on Cx46 hemi-channels ([3]; 30 μM FFA, 30 min application, starting with the 0 mV depolarization step): strong (P<0.005) and fully reversible inhibition | effect on Cx46 hemi-channel currents ([3]; increasing FFA concentrations, 300 μM FFA, 30 min, listed as FFA): virtually suppressed Cx46 hemi-channels; also recorded: almost complete blockade
